Earlier results on 1 compound are cited in patent publication US10172867B2, “Afobazole nanoparticles formulation for enhanced therapeutics” (University of South Florida, priority 2014, dated 2019).

One series relates to σ-1 receptor. Particulars: Cuevas et al., 2011.
The target of another series is σ-2 receptor (Homo sapiens, UniProt Q5BJF2). Particulars: Cuevas et al., 2011.
A further series deals with muscarinic receptors. Particulars: Seredenin et al., 2009.
The next series concerns in vitro ischemia model. Particulars: Cuevas et al.
The conditions of series [1]: in vivo.

σ-2 receptor, sequence (Q5BJF2 whole entry, species assumed): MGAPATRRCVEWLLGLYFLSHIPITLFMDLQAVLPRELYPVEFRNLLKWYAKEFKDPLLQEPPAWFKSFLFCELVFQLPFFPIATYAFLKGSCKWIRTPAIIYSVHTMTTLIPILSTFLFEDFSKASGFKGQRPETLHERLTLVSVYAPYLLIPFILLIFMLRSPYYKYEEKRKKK

Take `CCOc1ccc2nc(SCCN3CCOCC3)[nH]c2c1` [Afobazole, 5-ethoxy-2[2-(morpholine)-ethylthio]benzimidazole]: in the series with σ-1 receptor, the σ-1 receptor activity entry was “agonist”. Besides, at σ-2 receptor, the σ-2 receptor activity result was “agonist”. Moreover, the “interaction with muscarinic receptors” value with muscarinic receptors is on record as “does not interact”. Besides, the neuroprotection entry with in vitro ischemia model (in vitro ischemia model, 2011) is reported as “provides neuroprotection”. The “ischemia-induced Ca2+ overload” value in the series on in vitro ischemia model (via activation of σ-1 receptors, Katnik et al., 2006, 2011a) is “decrease in ischemia-induced Ca^2+ overload”. Moreover, in series [1], the brain penetration entry is “limited brain penetration” and the half-life entry is “short half-life”.
